Measurements published in patent publication US20060014677A1, “Method for maximizing efficacy and predicting and minimizing toxicity of calcineurin inhibitor compounds” (Isotechnika International Inc., priority 2004, published 2006).
Converted amounts (≈) assume the structure as drawn.

Experiments:
[1] = test system: stable renal transplant patients; conditions: human, in vivo, 12 week
Experimental: (§1) At weeks 1, 6, and 12, serial whole blood samples were drawn and drug concentrations were determined. PK and PD were evaluated using standard non-compartmental analysis and a calcineurin inhibition assay. […] Whole blood lysates were evaluated for their ability to dephosphorylate a ^32P-labelled 19 amino acid peptide substrate in the presence of okadaic acid, a phosphatast type 1 and 2 inhibitor. Background phosphatase 2C activity (CsA and okadaic acid resistant activity) was determined and subtracted from each sample, with the assay performed in the presence and absence of excess added CsA. The remaining phosphatase activity was taken as calcineurin activity. Serum creatinine was measured from blood samples, as a measure of renal toxicity.
This discriminant analysis was performed using SPSS for Windows version 10.1 software available from SPSS Inc.
A measurement taken at 8 hours was used as peak concentration in the absence of a C2 measurement in this study. […] Cmin measurement could be a measurement taken at C0 or at C8, whichever measurement gave the lower measurement. […] Clinical diagnosis of renal toxicity may require an increase of, for example, 50% over baseline.

clinical = conditions: human, in vivo
Experimental: as §1
(§2) A direct PK-PD correlation was performed using a sigmoid Emax model.
A measurement taken at 8 hours was used as peak concentration in the absence of a C2 measurement in this study. […] Cmin measurement could be a measurement taken at C0 or at C8, whichever measurement gave the lower measurement.
Percent fluctuation (FLU) was calculated as shown in Formula (2): [formula]

calcineurin = experiment: Calcineurin inhibition assay on whole blood lysates, PK-PD sigmoid Emax model (Study A, phase II); format: in vivo, human; conditions: FIG. 4A/4B; peak (C2) concentration vs % CNI
Experimental: At weeks 1, 6, and 12, serial whole blood samples were drawn and drug concentrations were determined. PK and PD were evaluated using standard non-compartmental analysis and a calcineurin inhibition assay. […] Whole blood lysates were evaluated for their ability to dephosphorylate a ^32P-labelled 19 amino acid peptide substrate in the presence of okadaic acid, a phosphatast type 1 and 2 inhibitor. Background phosphatase 2C activity (CsA and okadaic acid resistant activity) was determined and subtracted from each sample, with the assay performed in the presence and absence of excess added CsA. The remaining phosphatase activity was taken as calcineurin activity.
as §2
AIC is the Akaike Information Criterion. It is a dimensionless “goodness of fit” parameter that is a modification of an ‘F-test.’ The lower the AIC number the better the fit. This relationship was constructed using concentrations from trough (C0) through hour 4 (C4).

psoriasis patients = experiment: Psoriasis Area and Severity Index (PASI) vs trough concentration in psoriasis patients; format: in vivo, human; conditions: FIG. 2
Excerpt: While % CNI is used in FIG. 1 to illustrate drug efficacy, there are other ways to measure transplant drug efficacy or calcineurin inhibitor drug efficacy. For example, in animal models, graft survival in transplantation is an indication of immunosuppressive drug efficacy. However, graft survival is an experimental model that takes a long time to measure and is complicated in that grafts may not survive for reasons other than the effective concentration of immunosuppressive agents. For example, prolonged cold ischemic time, donor/recipient mismatch or surgical technique may affect outcome of a graft. In human transplant patients, episodes of rejection may be indicators of failure of a calcineurin inhibitor. Other markers may be patient survival, in the case of transplant. For Psoriasis, a decrease in Psoriasis Area and Severity Index (PASI) score is an indication of effective treatment of psoriasis. A 75% reduction in PASI score is commonly held as a successful therapy.
Using PASI score as another indicator of drug efficacy, FIG. 2 illustrates that as drug concentration increases, the PASI score, an indicator of psoriasis severity, decreases. […] EC50 is an indication of the potency of the drug. […] FIG. 2 illustrates the relationship between trough drug concentration (C0) and PASI score on day 42 of treatment where E equals effect, in this case measured by PASI score.

number of patients with normal renal function (actual group membership) [1]: 121
Cmax, mean (clinical): 159.59 ng/mL
t1/2, comparison between the two drugs (clinical): similar
time to maximum concentration (tmax), comparison between the two drugs (clinical): similar
C8, mean (clinical; 8 h): 54.327 ng/mL
concentration at 8 h (clinical; C8, mean): 37.3 ng/mL
Cmax (clinical; Cmax, mean): 188 ng/mL
EC50 (calcineurin): 161.8+54.5 ng/mL
EC50 (psoriasis patients; Homo sapiens, 1008 h, read-out: EC50, trough concentration required to achieve a 50% reduction in PASI, trough (C0), day 42 of treatment): 0.0135 ± 0.0081 µg/mL (≈ 0.0111 µM)
SMILES: C=C/C=C/C[C@@H](C)[C@@H](O)[C@H]1C(=O)N[C@@H](CC)C(=O)N(C)CC(=O)N(C)[C@@H](CC(C)C)C(=O)N[C@@H](C(C)C)C(=O)N(C)[C@@H](CC(C)C)C(=O)N[C@@H](C)C(=O)N[C@H](C)C(=O)N(C)[C@@H](CC(C)C)C(=O)N(C)[C@@H](CC(C)C)C(=O)N(C)[C@@H](C(C)C)C(=O)N1C [ISA247]
number of patients with renal toxicity (actual group membership) [1]: 26
Emax, maximum possible mean PASI (psoriasis patients; trough (C0) concentration vs PASI on day 42): 22.9±7 PAS1
